Key:
[1] = tested on: H1299 human non-small cell lung cell line; experiment: MTT cell viability, H1299 cells; format: cell-based; conditions: 24 hours
Method: After drug treatment, the cells were washed with PBS and replaced with fresh complete RPMI-1640 medium for 2 days. Thereafter, the medium was replaced and the cells were incubated with 0.5 mg/mL of MTT reagent (Sigma Chemical Co., St. Louis, Mo.) in complete RPMI-1640 medium for 4 hours. The intensity of formazan was measured at 565 nm using a plate reader (VERSAmax, Molecular Dynamics, Sunnyvale, Calif.). The relative percentage of cell viability was calculated by dividing the absorbance of treated cells by that of the control in each experiment.

[2] = molecular target: T1, EGFR (epidermal growth factor receptor) (Homo sapiens, UniProt P00533); experiment: KinaseProfiler assay, EGFR; format: biochemical; conditions: read-out: KAR value (kinase activity remaining)
T1 construct: purchased Merck Millipore (KinaseProfiler service)
T1 sequence (P00533 25-1210): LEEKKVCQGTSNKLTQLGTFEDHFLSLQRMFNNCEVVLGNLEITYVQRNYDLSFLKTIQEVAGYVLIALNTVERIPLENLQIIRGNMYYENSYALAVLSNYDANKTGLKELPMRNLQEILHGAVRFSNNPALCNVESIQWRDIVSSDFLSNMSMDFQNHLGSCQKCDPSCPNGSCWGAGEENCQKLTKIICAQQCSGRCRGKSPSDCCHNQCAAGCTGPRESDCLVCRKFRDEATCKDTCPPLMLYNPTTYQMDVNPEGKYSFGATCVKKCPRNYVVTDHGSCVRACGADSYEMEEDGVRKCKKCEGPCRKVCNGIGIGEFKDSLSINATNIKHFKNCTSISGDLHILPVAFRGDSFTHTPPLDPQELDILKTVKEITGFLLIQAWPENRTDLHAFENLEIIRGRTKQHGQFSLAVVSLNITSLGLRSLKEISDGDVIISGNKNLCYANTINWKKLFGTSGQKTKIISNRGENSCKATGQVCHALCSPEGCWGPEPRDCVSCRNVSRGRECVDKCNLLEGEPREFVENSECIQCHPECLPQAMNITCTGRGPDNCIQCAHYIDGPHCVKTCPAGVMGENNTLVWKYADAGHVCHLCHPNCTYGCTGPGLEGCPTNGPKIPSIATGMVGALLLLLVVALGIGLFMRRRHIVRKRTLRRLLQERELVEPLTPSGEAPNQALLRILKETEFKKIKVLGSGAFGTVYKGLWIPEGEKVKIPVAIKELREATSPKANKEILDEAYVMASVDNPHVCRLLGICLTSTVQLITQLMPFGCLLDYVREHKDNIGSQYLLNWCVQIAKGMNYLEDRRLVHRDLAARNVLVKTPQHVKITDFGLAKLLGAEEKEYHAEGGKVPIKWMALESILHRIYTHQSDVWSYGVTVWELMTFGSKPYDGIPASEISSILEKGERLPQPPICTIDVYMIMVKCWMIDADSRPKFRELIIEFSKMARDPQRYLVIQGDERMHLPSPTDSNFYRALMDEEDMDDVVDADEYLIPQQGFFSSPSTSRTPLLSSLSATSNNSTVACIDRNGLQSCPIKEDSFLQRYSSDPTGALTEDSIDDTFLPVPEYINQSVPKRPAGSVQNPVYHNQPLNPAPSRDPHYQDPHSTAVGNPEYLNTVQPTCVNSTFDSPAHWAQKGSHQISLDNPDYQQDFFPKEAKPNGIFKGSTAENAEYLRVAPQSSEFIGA

[3] = molecular target: T2, CHEK1 (checkpoint kinase-1) (Homo sapiens, UniProt O14757); experiment: KinaseProfiler assay, CHEK1; format: biochemical; conditions: read-out: KAR value (kinase activity remaining)
T2 construct: purchased Merck Millipore (KinaseProfiler service)
T2 sequence (O14757 whole entry): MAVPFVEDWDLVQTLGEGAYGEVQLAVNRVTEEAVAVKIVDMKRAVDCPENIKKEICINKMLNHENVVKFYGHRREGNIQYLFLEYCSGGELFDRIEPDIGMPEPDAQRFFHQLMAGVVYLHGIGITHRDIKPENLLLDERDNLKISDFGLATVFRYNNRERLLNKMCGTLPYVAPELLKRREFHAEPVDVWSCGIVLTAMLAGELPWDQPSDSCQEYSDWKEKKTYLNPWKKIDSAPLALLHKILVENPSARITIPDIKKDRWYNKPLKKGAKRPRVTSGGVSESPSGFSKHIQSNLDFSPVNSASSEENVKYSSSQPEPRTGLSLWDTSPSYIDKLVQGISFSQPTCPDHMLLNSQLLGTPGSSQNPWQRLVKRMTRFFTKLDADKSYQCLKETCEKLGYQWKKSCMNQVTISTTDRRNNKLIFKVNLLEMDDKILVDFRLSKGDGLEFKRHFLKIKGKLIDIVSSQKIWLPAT
From the text: The kinase activity remaining (KAR) value is inversely related to kinase activity.

[4] = molecular target: T3, MKNK2 (MAPK-interacting kinase-2) (Homo sapiens, UniProt Q9HBH9); experiment: KinaseProfiler assay, MKNK2; format: biochemical; conditions: read-out: KAR value (kinase activity remaining)
T3 construct: purchased Merck Millipore (KinaseProfiler service)
T3 sequence (Q9HBH9 whole entry): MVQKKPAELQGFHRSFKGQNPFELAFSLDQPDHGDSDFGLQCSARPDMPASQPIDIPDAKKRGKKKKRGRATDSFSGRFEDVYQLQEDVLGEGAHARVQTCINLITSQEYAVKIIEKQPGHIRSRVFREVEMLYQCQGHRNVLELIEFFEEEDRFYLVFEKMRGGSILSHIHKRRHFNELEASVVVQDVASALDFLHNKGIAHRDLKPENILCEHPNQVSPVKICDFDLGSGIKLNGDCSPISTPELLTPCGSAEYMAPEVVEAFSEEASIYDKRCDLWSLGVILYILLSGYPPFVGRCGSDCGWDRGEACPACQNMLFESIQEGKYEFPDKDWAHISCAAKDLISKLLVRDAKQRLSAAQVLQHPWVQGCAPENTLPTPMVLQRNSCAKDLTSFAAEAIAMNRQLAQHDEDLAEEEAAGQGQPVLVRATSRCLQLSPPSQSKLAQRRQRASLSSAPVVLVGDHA
From the text: (§1) The kinase activity remaining (KAR) value is […] related to kinase activity. […]

[5] = molecular target: T4, STK10 (lymphocyte-oriented kinase) (Homo sapiens, UniProt O94804); experiment: KinaseProfiler assay, STK10; format: biochemical; conditions: read-out: KAR value (kinase activity remaining)
T4 construct: purchased Merck Millipore (KinaseProfiler service)
T4 sequence (O94804 whole entry): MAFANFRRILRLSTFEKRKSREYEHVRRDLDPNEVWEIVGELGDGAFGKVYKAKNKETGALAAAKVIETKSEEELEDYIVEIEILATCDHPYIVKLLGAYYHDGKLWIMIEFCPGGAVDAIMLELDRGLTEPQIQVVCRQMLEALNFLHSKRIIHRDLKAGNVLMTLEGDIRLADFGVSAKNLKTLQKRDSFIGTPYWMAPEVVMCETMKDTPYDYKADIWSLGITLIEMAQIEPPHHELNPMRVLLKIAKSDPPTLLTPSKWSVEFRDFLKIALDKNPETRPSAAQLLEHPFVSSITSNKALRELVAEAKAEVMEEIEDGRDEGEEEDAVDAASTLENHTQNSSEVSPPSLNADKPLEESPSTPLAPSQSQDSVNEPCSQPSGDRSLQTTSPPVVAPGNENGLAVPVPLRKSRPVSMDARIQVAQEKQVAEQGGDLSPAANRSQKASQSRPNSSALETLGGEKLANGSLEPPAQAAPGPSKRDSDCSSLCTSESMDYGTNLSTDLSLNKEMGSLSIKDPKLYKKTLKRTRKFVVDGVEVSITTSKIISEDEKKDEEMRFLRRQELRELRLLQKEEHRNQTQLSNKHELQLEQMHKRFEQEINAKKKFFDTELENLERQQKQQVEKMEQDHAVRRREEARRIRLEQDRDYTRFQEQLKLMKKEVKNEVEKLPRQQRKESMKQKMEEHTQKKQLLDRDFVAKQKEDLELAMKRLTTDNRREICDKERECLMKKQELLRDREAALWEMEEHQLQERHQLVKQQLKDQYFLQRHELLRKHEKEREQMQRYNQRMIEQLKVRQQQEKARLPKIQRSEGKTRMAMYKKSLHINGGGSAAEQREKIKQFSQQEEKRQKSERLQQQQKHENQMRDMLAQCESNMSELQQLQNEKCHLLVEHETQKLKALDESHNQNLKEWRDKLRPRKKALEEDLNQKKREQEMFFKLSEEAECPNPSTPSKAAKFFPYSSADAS
From the text: as §1

[6] = molecular target: T5, FGFR1 (fibroblast growth factor receptor-1) (Homo sapiens, UniProt P11362); experiment: KinaseProfiler assay, FGFR1; format: biochemical; conditions: read-out: KAR value (kinase activity remaining)
T5 construct: purchased Merck Millipore (KinaseProfiler service)
T5 sequence (P11362 22-822): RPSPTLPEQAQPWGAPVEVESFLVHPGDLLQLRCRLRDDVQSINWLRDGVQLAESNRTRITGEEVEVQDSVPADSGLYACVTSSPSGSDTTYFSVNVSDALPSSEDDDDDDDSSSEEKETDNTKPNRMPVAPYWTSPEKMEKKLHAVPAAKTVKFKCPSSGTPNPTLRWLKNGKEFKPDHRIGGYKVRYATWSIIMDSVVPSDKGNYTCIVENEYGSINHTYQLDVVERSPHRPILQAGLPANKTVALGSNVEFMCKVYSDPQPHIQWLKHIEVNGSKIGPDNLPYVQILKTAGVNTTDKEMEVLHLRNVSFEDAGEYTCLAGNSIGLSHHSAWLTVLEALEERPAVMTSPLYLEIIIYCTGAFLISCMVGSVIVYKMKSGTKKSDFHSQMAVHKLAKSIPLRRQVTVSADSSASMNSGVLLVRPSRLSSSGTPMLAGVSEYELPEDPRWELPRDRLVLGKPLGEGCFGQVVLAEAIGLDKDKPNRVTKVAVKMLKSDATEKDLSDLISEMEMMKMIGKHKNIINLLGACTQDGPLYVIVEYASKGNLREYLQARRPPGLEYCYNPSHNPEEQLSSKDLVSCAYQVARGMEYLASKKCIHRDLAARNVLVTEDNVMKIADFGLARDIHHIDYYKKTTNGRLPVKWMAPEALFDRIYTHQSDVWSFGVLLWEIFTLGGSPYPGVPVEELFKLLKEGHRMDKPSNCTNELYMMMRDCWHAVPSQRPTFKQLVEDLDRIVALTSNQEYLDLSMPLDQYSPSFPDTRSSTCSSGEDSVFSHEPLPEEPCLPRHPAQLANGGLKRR
From the text: as §1

[7] = molecular target: T6, LCK (lymphocyte kinase) (Homo sapiens, UniProt P06239); experiment: KinaseProfiler assay, LCK; format: biochemical; conditions: read-out: KAR value (kinase activity remaining)
T6 construct: purchased Merck Millipore (KinaseProfiler service)
T6 sequence (P06239 whole entry): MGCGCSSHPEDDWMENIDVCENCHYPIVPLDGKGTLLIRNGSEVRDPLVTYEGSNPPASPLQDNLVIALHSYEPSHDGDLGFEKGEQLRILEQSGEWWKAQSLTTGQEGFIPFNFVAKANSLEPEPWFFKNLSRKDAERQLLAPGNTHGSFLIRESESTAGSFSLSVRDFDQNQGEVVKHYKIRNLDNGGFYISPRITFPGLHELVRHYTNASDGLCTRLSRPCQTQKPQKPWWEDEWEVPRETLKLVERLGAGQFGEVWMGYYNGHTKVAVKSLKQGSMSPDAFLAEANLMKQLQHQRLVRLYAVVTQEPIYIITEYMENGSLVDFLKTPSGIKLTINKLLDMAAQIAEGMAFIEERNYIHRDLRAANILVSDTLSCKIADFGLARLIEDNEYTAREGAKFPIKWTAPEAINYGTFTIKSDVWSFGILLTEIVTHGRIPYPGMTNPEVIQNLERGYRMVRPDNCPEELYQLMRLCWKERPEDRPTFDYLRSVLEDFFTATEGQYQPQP

[8] = tested on: A549 cells; experiment: Annexin V-PI apoptosis analysis by flow cytometry; format: cell-based, human; conditions: 10-40 μM for 24 hours
Method: The Annexin V-PI staining kit (BioVision, Mountain View, Calif.) was used to exam the cells by incubating with fluorescent isothiocyanate (FITC)-conjugated-Annexin V and PI according to the manufacturer's instruction. […] The cells were cultured in 60-mm Petri dish at a density of 7×10^5 cells for 16 to 20 hours. […] The cells were trypsinized and collected by centrifugation at 1500 rpm for 5 minutes. Thereafter, the cells were incubated with 500 μl Annexin V-PI labeling solution (containing 5 μl Annexin V-FITC and 5 μl PI in PBS) at room temperature in the dark for 5 minutes. To avoid cell aggregation, the cell solutions were filtered through a nylon mesh membrane (Becton-Dickinson, San Jose, Calif.). Finally, the samples were analyzed immediately using flow cytometer (FACS Calibur, BD Biosciences, Heidelberg, Germany). The percentage of Annexin V-PI staining cells was quantified from a minimum of 10,000 cells by CellQuest software (BD Biosciences).

[9] = tested on: A549 human lung xenograft tumors; experiment: Tumor growth of xenograft human lung tumors in nude mice; format: in vivo; conditions: 30 mg/kg three times every 4 days, day 16; control groups 406.52 mm^3
From the text: (§2) The present invention determines the effect of Analogue-18 on tumor growth of the xenograft human lung tumors in nude mice. BALB/cAnN.Cg-FoxnInu/CrlNarl mice (3-week-old male) were obtained from BioLASCO (BioLASCO Co., Ltd., Taipei, Taiwan). After 2 weeks for environmental adaption, the mice were used for human lung cancer cell inoculation. Solid A549 flank tumors were established by subcutaneous injection of 2×10^6 cells. After 10 days, the mice bearing A549 human lung xenograft tumors were injected with 100 μl corn oil (control) or 30 mg/kg Analogue-18 for three times every 4 days. The tumor size of the mice was measured by a digital caliper every 4 days and calculated by the following formula: (length)×(width)^2×0.5. The xenograft tumors were harvested from scarified mice. The tumors were homogenized and the total lysate were subjected to Western blot analysis according to Example 4.

[10] = tested on: survivin; experiment: Western blot of survivin protein in xenograft tumors; format: in vivo, nude mice; conditions: 30 mg/kg three times every 4 days
From the text: as §2

[11] = tested on: PARP; experiment: Western blot of cleaved PARP in A549 cells; conditions: 10-40 μM, 24 hours
Method: (§3) The protease inhibitors including 1 μg/ml aprotinin, 0.5 μg/ml leupeptin, and 100 μg/ml 4-(2-aminoethyl)benzenesulfonyl fluoride were added to the cell suspensions. The lysates were vibrated for 30 minutes at 4° C. and centrifuged at 10,000 rpm for 10 minutes. The protein concentrations were determined by the BCA protein assay kit (Pierce, Rockford, Ill.). […] The membranes were blocked overnight at 4° C. using blocking buffer (5% non-fat dried milk in solution containing 50 mM Tris/HCl (pH 8.0), 2 mM CaCl2, 80 mM NaCl, 0.05% Tween 20 and 0.02% sodium azide). The membranes were sequentially hybridized with primary antibody and followed with a horseradish peroxidase-conjugated secondary antibody. The protein bands were visualized on the X-ray film using the enhanced chemiluminescence detection system (PerkinElmer Life and Analytical Sciences, Boston, Mass.). […] To verify equal protein loading and transfer, actin was used as the protein loading control. The gel digitizing software, Un-Scan-It gel (Ver. 5.1, Silk Scientific, Inc., Orem, Utah), was used to analyze the intensity of protein bands on X-ray film.
(§4) A549 cells were plated at a density of 1×10^6 cells per 60-mm Petri dish in complete medium for 16 to 20 hours. […] To verify equal protein loading and transfer, actin was used as the protein loading control.

[12] = tested on: caspase 3; experiment: Western blot of active caspase 3 in A549 cells; conditions: 10-40 μM, 24 hours
Method: as §3, §4

For `CCCCCCCCCCCCOC(=O)CCC(=O)N1CCN(CCCOc2cc3c(Nc4ccc(F)c(Cl)c4)ncnc3cc2OC)CC1` [Analogue-18, dodecyl 4-(4-(3-(4-(3-chloro-4-fluorophenylamino)-7-methoxyquinazolin-6-yloxy)propyl)piperazin-1-yl)-4-oxobutanoate], the reducing cell viability ([1]; H1299, 0 to 40 μM, compared with Iressa) was “more effective on reducing cell viability than Iressa”, the toxicity effects ([1]; H1299, 40 μM) was “more than 99%” and the remaining activity at 10 µM [2] was -2%. For the same compound, the remaining activity at 10 µM [3] was 69%, the remaining activity at 10 µM [4] was 85% and the remaining activity at 10 µM [5] was 43%. For the same compound, the remaining activity at 10 µM [6] was 82%, the remaining activity at 10 µM [7] was 89% and the “average of total apoptosis” value [8] was “around 67.9%”. For the same compound, the average tumor size [9] was 118.19 mm^3, the “survivin protein levels of xenograft tumors” value [10] was “significantly reduced about half amount” and the “cleaved form of PARP” value [11] was “induced the cleaved form of PARP”. The “active form of caspase 3” value [12] was “significantly induced”.
